Laboratory results reported in paper PMC5218480 (PLoS ONE, 2017).

System: MV-4-11 cells
Experiment: Gene expression microarray analysis (Affymetrix PrimeView) and GSEA
Type: cell-based, human
Design: RFU PODN (11730768_x_at) / Fold change /veh PODN (11730768_x_at) / RFU LINC00158 (11744669_a_at) / Fold change /veh LINC00158 (11744669_a_at) / RFU DUSP10 (11751237_a_at) / Fold change /veh DUSP10 (11751237_a_at) / RFU ID3 (11757404_x_at) / Fold change /veh ID3 (11757404_x_at) / RFU PLEKHG5 (11737974_s_at) / Fold change /veh PLEKHG5 (11737974_s_at) / RFU LRRC4B (11730491_at) / Fold change /veh LRRC4B (11730491_at) / RFU GIMAP4 (11747438_a_at) / Fold change /veh GIMAP4 (11747438_a_at) / RFU KRT8 (11758183_x_at) / Fold change /veh KRT8 (11758183_x_at) / RFU CNN1 (11734310_a_at) / Fold change /veh CNN1 (11734310_a_at) / RFU VPS37D (11726825_at) / Fold change /veh VPS37D (11726825_at) / RFU C10orf10 (11716522_x_at) / Fold change /veh C10orf10 (11716522_x_at) / RFU KIR2DL2 /// KIR2DL4 /// KIR2DL5A /// KIR2DL5B /// KIR2DS1 /// KIR2DS2 /// KIR2DS3 /// KIR2DS4 /// KIR3DL3 /// KIR3DL3 /// KIR3DS1 (11738374_at) / Fold change /veh KIR2DL2 /// KIR2DL4 /// KIR2DL5A /// KIR2DL5B /// KIR2DS1 /// KIR2DS2 /// KIR2DS3 /// KIR2DS4 /// KIR3DL3 /// KIR3DL3 /// KIR3DS1 (11738374_at) / RFU C1QL1 (11718748_at) / Fold change /veh C1QL1 (11718748_at) / RFU TMPRSS4 (11747572_a_at) / Fold change /veh TMPRSS4 (11747572_a_at) / RFU HAMP (11756126_x_at) / Fold change /veh HAMP (11756126_x_at) / RFU RNFT2 (11725882_a_at) / Fold change /veh RNFT2 (11725882_a_at) / RFU NR4A2 (11747474_a_at) / Fold change /veh NR4A2 (11747474_a_at) / RFU ABCC12 (11746883_a_at) / Fold change /veh ABCC12 (11746883_a_at) / RFU TMEM136 (11760407_x_at) / Fold change /veh TMEM136 (11760407_x_at) / RFU CLDN22 /// WWC2 (11732394_at) / Fold change /veh CLDN22 /// WWC2 (11732394_at) / RFU HLA-DPB1 (11760878_x_at) / Fold change /veh HLA-DPB1 (11760878_x_at) / RFU SPINT1 (11716480_a_at) / Fold change /veh SPINT1 (11716480_a_at) / RFU GAP43 (11754022_s_at) / Fold change /veh GAP43 (11754022_s_at) / RFU A4GNT (11735810_at) / Fold change /veh A4GNT (11735810_at) / RFU PRB3 (11715151_x_at) / Fold change /veh PRB3 (11715151_x_at) / RFU TUBB4B (11761932_at) / Fold change /veh TUBB4B (11761932_at) / RFU CAPN14 (11732068_a_at) / Fold change /veh CAPN14 (11732068_a_at) / RFU TMCC2 (11721928_a_at) / Fold change /veh TMCC2 (11721928_a_at) / RFU IRGQ (11745062_a_at) / Fold change /veh IRGQ (11745062_a_at) / RFU FAM174B (11720279_a_at) / Fold change /veh FAM174B (11720279_a_at) / RFU TMPRSS4 (11748680_a_at) / Fold change /veh TMPRSS4 (11748680_a_at) / RFU FAM212B (11763350_a_at) / Fold change /veh FAM212B (11763350_a_at) / RFU PLEKHG5 (11743358_a_at) / Fold change /veh PLEKHG5 (11743358_a_at) / RFU ZSCAN30 (11745921_a_at) / Fold change /veh ZSCAN30 (11745921_a_at) / RFU CMKLR1 (11741424_a_at) / Fold change /veh CMKLR1 (11741424_a_at) / RFU LOC101060620 /// MAPK8IP1 (11723275_at) / Fold change /veh LOC101060620 /// MAPK8IP1 (11723275_at) / RFU SPTSSB (11747773_x_at) / Fold change /veh SPTSSB (11747773_x_at) / RFU PRSS12 (11739890_at) / Fold change /veh PRSS12 (11739890_at) / RFU BIN1 (11741810_x_at) / Fold change /veh BIN1 (11741810_x_at) / RFU WNT11 (11732464_a_at) / Fold change /veh WNT11 (11732464_a_at) / RFU C10orf10 (11716521_a_at) / Fold change /veh C10orf10 (11716521_a_at) / RFU C5orf56 (11738089_at) / Fold change /veh C5orf56 (11738089_at) / RFU CYB561 (11721691_x_at) / Fold change /veh CYB561 (11721691_x_at) / RFU ANKRD19P (11752326_a_at) / Fold change /veh ANKRD19P (11752326_a_at) / RFU OR2T12 /// OR2T33 /// OR2T8 (11738714_s_at) / Fold change /veh OR2T12 /// OR2T33 /// OR2T8 (11738714_s_at) / RFU VCAN (11748164_a_at) / Fold change /veh VCAN (11748164_a_at) / RFU JSRP1 (11732532_at) / Fold change /veh JSRP1 (11732532_at) / RFU KRTAP10-11 (11738290_x_at) / Fold change /veh KRTAP10-11 (11738290_x_at) / RFU MYO3A (11730013_a_at) / Fold change /veh MYO3A (11730013_a_at) / RFU EBF3 (11725865_a_at) / Fold change /veh EBF3 (11725865_a_at) / RFU CAMK2N1 (11719241_x_at) / Fold change /veh CAMK2N1 (11719241_x_at) / RFU C5orf56 (11738088_a_at) / Fold change /veh C5orf56 (11738088_a_at) / RFU OLFML3 (11715873_a_at) / Fold change /veh OLFML3 (11715873_a_at) / RFU LOC100653217 /// NTM (11731650_a_at) / Fold change /veh LOC100653217 /// NTM (11731650_a_at) / RFU MAPK11 (11762145_a_at) / Fold change /veh MAPK11 (11762145_a_at) / RFU FIZ1 (11724087_x_at) / Fold change /veh FIZ1 (11724087_x_at) / RFU OASL (11726364_x_at) / Fold change /veh OASL (11726364_x_at) / RFU SOX15 (11748057_x_at) / Fold change /veh SOX15 (11748057_x_at) / RFU CD79A (11719716_a_at) / Fold change /veh CD79A (11719716_a_at) / RFU HIST1H1D (11736915_at) / Fold change /veh HIST1H1D (11736915_at) / RFU CASKIN2 (11723855_a_at) / Fold change /veh CASKIN2 (11723855_a_at) / RFU LOC730098 (11760151_x_at) / Fold change /veh LOC730098 (11760151_x_at) / RFU OR4N2 (11742367_at) / Fold change /veh OR4N2 (11742367_at) / RFU PRRT2 (11749266_a_at) / Fold change /veh PRRT2 (11749266_a_at) / RFU SNX32 (11753110_a_at) / Fold change /veh SNX32 (11753110_a_at) / RFU CDHR5 (11726645_a_at) / Fold change /veh CDHR5 (11726645_a_at) / RFU RCAN1 (11760418_a_at) / Fold change /veh RCAN1 (11760418_a_at) / RFU FAM167A (11723789_a_at) / Fold change /veh FAM167A (11723789_a_at) / RFU FAM26E (11764081_at) / Fold change /veh FAM26E (11764081_at) / RFU ISYNA1 (11749810_s_at) / Fold change /veh ISYNA1 (11749810_s_at) / RFU ACY1 (11761880_at) / Fold change /veh ACY1 (11761880_at) / RFU 11764098_at / Fold change /veh 11764098_at / RFU SAMD14 (11745864_x_at) / Fold change /veh SAMD14 (11745864_x_at) / RFU NPB (11741838_a_at) / Fold change /veh NPB (11741838_a_at) / RFU TMPRSS6 (11731388_a_at) / Fold change /veh TMPRSS6 (11731388_a_at) / RFU KRTAP10-2 (11738614_at) / Fold change /veh KRTAP10-2 (11738614_at) / RFU ARHGAP8 /// PRR5-ARHGAP8 (11727945_x_at) / Fold change /veh ARHGAP8 /// PRR5-ARHGAP8 (11727945_x_at) / RFU KRTAP5-7 /// NADSYN1 (11734609_at) / Fold change /veh KRTAP5-7 /// NADSYN1 (11734609_at) / RFU RASL12 (11751679_a_at) / Fold change /veh RASL12 (11751679_a_at) / RFU CDKN2B (11736163_a_at) / Fold change /veh CDKN2B (11736163_a_at) / RFU PRF1 (11729649_at) / Fold change /veh PRF1 (11729649_at) / RFU, ZNF638 /// ZNF638-IT1 / Fold change vs veh, ZNF638 /// ZNF638-IT1 / RFU, PANK3 / Fold change vs veh, PANK3 / RFU, SH3YL1 / Fold change vs veh, SH3YL1 / RFU, ZEB2 / Fold change vs veh, ZEB2 / RFU, NRIP1 / Fold change vs veh, NRIP1 / RFU, PTTG1IP / Fold change vs veh, PTTG1IP / RFU, CAPN2 / Fold change vs veh, CAPN2 / RFU, MED14 / Fold change vs veh, MED14 / RFU, SNORA58 / Fold change vs veh, SNORA58 / RFU, C1orf63 / Fold change vs veh, C1orf63 / RFU, LRRFIP1 / Fold change vs veh, LRRFIP1 / RFU, NDUFAF7 / Fold change vs veh, NDUFAF7 / RFU, SLC12A2 / Fold change vs veh, SLC12A2 / RFU, IBTK / Fold change vs veh, IBTK / RFU, ESF1 / Fold change vs veh, ESF1 / Fold change vs veh, TMEM50B / RFU, TAOK1 / Fold change vs veh, TAOK1 / RFU, ACBD3 / Fold change vs veh, ACBD3 / RFU, TMA16 / Fold change vs veh, TMA16 / RFU, RWDD3 / Fold change vs veh, RWDD3 / RFU, BCAT1 / Fold change vs veh, BCAT1 / RFU, EDEM3 / Fold change vs veh, EDEM3 / RFU, TMEM33 / Fold change vs veh, TMEM33 / RFU, WDR75 / Fold change vs veh, WDR75 / RFU, AHCTF1 / Fold change vs veh, AHCTF1 / RFU, TFRC / Fold change vs veh, TFRC / RFU, ZDHHC17 / Fold change vs veh, ZDHHC17 / RFU, NOM1 / Fold change vs veh, NOM1 / RFU, ARL8B / Fold change vs veh, ARL8B / RFU, ZBTB11 / Fold change vs veh, ZBTB11 / RFU, TAMM41 / Fold change vs veh, TAMM41 / RFU, KIAA1704 /// LOC100996395 / Fold change vs veh, KIAA1704 /// LOC100996395 / RFU, ING1 / Fold change vs veh, ING1 / RFU, TRMT61B / Fold change vs veh, TRMT61B / RFU, FUBP3 / Fold change vs veh, FUBP3 / RFU, TP53 / Fold change vs veh, TP53 / RFU, TNKS2 / Fold change vs veh, TNKS2 / RFU, ZFP14 / Fold change vs veh, ZFP14 / RFU, ACTR2 / Fold change vs veh, ACTR2 / RFU, PPP3R1 / Fold change vs veh, PPP3R1 / RFU, PIK3R1 / Fold change vs veh, PIK3R1 / RFU, HNRNPA1 / Fold change vs veh, HNRNPA1 / RFU, RNF170 / Fold change vs veh, RNF170 / RFU, ZNF28 / Fold change vs veh, ZNF28 / RFU, RNGTT / Fold change vs veh, RNGTT / RFU, OGT / Fold change vs veh, OGT / RFU, BRD1 / Fold change vs veh, BRD1 / RFU, MARS / Fold change vs veh, MARS / RFU, ZNF655 / Fold change vs veh, ZNF655 / RFU, FAHD1 / Fold change vs veh, FAHD1 / RFU, BDP1 / Fold change vs veh, BDP1 / RFU, LRRCC1 / Fold change vs veh, LRRCC1 / RFU, ARID1A / Fold change vs veh, ARID1A / RFU, ZNF146 / Fold change vs veh, ZNF146 / RFU, ZNF330 / Fold change vs veh, ZNF330 / RFU, GPN3 / Fold change vs veh, GPN3 / RFU, C9orf123 / Fold change vs veh, C9orf123 / RFU, N4BP2L2 / Fold change vs veh, N4BP2L2 / RFU, ARFIP1 / Fold change vs veh, ARFIP1 / RFU, FAM179B / Fold change vs veh, FAM179B / RFU, BCL10 / Fold change vs veh, BCL10 / RFU, UHRF1BP1L / Fold change vs veh, UHRF1BP1L / RFU, BET1 / Fold change vs veh, BET1 / RFU, CNOT2 / Fold change vs veh, CNOT2 / RFU, ZNF268 / Fold change vs veh, ZNF268 / Fold change vs veh, ZNF507 / RFU, DGCR2 / Fold change vs veh, DGCR2 / RFU, WDSUB1 / Fold change vs veh, WDSUB1 / Fold change vs veh, HSP90B1 /// MIR3652 / RFU, ADSS / Fold change vs veh, ADSS / RFU, GK / Fold change vs veh, GK / RFU, ZNF148 / Fold change vs veh, ZNF148 / RFU, TAF9 / Fold change vs veh, TAF9 / RFU, SLC1A5 / Fold change vs veh, SLC1A5 / RFU, SLMO2 / Fold change vs veh, SLMO2 / RFU, ABCC4 / Fold change vs veh, ABCC4 / RFU, LOC101060439 /// RAP1B / Fold change vs veh, LOC101060439 /// RAP1B / RFU, RFX7 / Fold change vs veh, RFX7 / RFU, GTPBP10 / Fold change vs veh, GTPBP10 / RFU, CNEP1R1 / Fold change vs veh, CNEP1R1 / RFU, BIVM-ERCC5 /// ERCC5 / Fold change vs veh, BIVM-ERCC5 /// ERCC5 / RFU, ILF3 / Fold change vs veh, ILF3 / RFU 11762660_at / Fold change /veh 11762660_at / RFU VCAN (11757783_s_at) / Fold change /veh VCAN (11757783_s_at) / RFU DDX43 (11728927_at) / Fold change /veh DDX43 (11728927_at) / RFU KRT8 (11758188_x_at) / Fold change /veh KRT8 (11758188_x_at) / RFU NKD1 (11759106_at) / Fold change /veh NKD1 (11759106_at) / RFU SRD5A1 (11742802_a_at) / Fold change /veh SRD5A1 (11742802_a_at) / RFU TPSAB1 /// TPSB2 (11721975_s_at) / Fold change /veh TPSAB1 /// TPSB2 (11721975_s_at) / RFU GSTM3 (11746129_a_at) / Fold change /veh GSTM3 (11746129_a_at) / RFU IL23R (11737362_x_at) / Fold change /veh IL23R (11737362_x_at) / RFU TMEM51 (11727254_a_at) / Fold change /veh TMEM51 (11727254_a_at) / RFU PIWIL2 (11732686_x_at) / Fold change /veh PIWIL2 (11732686_x_at) / RFU ORM1 (11744905_x_at) / Fold change /veh ORM1 (11744905_x_at) / RFU CCDC152 (11743942_at) / Fold change /veh CCDC152 (11743942_at) / RFU ECM1 (11717891_a_at) / Fold change /veh ECM1 (11717891_a_at) / RFU IL23R (11748794_a_at) / Fold change /veh IL23R (11748794_a_at) / RFU TNFAIP8L3 (11732012_x_at) / Fold change /veh TNFAIP8L3 (11732012_x_at) / RFU MBOAT4 (11741988_at) / Fold change /veh MBOAT4 (11741988_at) / RFU 11764193_at / Fold change /veh 11764193_at / RFU TMEM53 (11763286_at) / Fold change /veh TMEM53 (11763286_at) / RFU MAGEB2 (11727129_at) / Fold change /veh MAGEB2 (11727129_at) / RFU TMEM200A (11744735_a_at) / Fold change /veh TMEM200A (11744735_a_at) / RFU CCDC152 (11751479_a_at) / Fold change /veh CCDC152 (11751479_a_at) / RFU FAM211A (11726209_a_at) / Fold change /veh FAM211A (11726209_a_at) / RFU RGS16 (11746705_a_at) / Fold change /veh RGS16 (11746705_a_at) / RFU VCAN (11755009_s_at) / Fold change /veh VCAN (11755009_s_at) / RFU RHOB (11743442_s_at) / Fold change /veh RHOB (11743442_s_at) / RFU RGS16 (11720943_a_at) / Fold change /veh RGS16 (11720943_a_at) / RFU RGS16 (11720944_at) / Fold change /veh RGS16 (11720944_at) / RFU, VPS4B / Fold change vs veh, VPS4B / RFU, CREB1 / Fold change vs veh, CREB1 / RFU, DNAJC13 / Fold change vs veh, DNAJC13 / RFU, GNAQ / Fold change vs veh, GNAQ / RFU, CDK5R1 / Fold change vs veh, CDK5R1 / RFU, ZRANB3 / Fold change vs veh, ZRANB3 / RFU, CUL4A / Fold change vs veh, CUL4A / RFU, CCNY / Fold change vs veh, CCNY / RFU, UFL1 / Fold change vs veh, UFL1 / RFU, COG3 / Fold change vs veh, COG3 / RFU, DIAPH2 / Fold change vs veh, DIAPH2 / RFU, SKA2 / Fold change vs veh, SKA2 / RFU, AFF3 / Fold change vs veh, AFF3 / RFU, LMF1 / Fold change vs veh, LMF1 / RFU, IPO11 / Fold change vs veh, IPO11 / RFU, DFFB / Fold change vs veh, DFFB / RFU, FOXP1 / Fold change vs veh, FOXP1 / RFU, CARD8 / Fold change vs veh, CARD8 / RFU, STRN3 / Fold change vs veh, STRN3 / RFU, ADK / Fold change vs veh, ADK / RFU, RASSF2 / Fold change vs veh, RASSF2 / RFU, WIPF1 / Fold change vs veh, WIPF1 / RFU, LARP1B / Fold change vs veh, LARP1B / RFU, RASA1 / Fold change vs veh, RASA1 / RFU, RB1 / Fold change vs veh, RB1 / RFU, PPFIA1 / Fold change vs veh, PPFIA1 / RFU, MAT2A / Fold change vs veh, MAT2A / RFU, CCT5 / Fold change vs veh, CCT5 / RFU, WDR92 / Fold change vs veh, WDR92 / RFU, CUX1 / Fold change vs veh, CUX1 / RFU, TTC7A / Fold change vs veh, TTC7A / RFU, TMEM135 / Fold change vs veh, TMEM135 / RFU, DEPTOR / Fold change vs veh, DEPTOR / RFU, CPM / Fold change vs veh, CPM / RFU, DNAJB6 / Fold change vs veh, DNAJB6 / RFU, CACNA2D3 / Fold change vs veh, CACNA2D3 / RFU, DTX4 / Fold change vs veh, DTX4 / RFU, TFCP2 / Fold change vs veh, TFCP2 / RFU, GMCL1 /// GMCL1P1 / Fold change vs veh, GMCL1 /// GMCL1P1 / RFU, AEBP2 / Fold change vs veh, AEBP2 / RFU, SNHG1 /// SNORD22 /// SNORD25 /// SNORD26 /// SNORD27 /// SNORD28 /// SNORD29 /// SNORD31 / Fold change vs veh, SNHG1 /// SNORD22 /// SNORD25 /// SNORD26 /// SNORD27 /// SNORD28 /// SNORD29 /// SNORD31 / Fold change (Aza/veh), C12orf56 (ProbeSet 11735607_a_at) / Fold change (ACY-1035/veh), C12orf56 (ProbeSet 11735607_a_at) / Fold change (Aza/veh), FGFR1OP (ProbeSet 11751329_s_at) / Fold change (ACY-1035/veh), FGFR1OP (ProbeSet 11751329_s_at) / Fold change (Aza/veh), VPS36 (ProbeSet 11739960_a_at) / Fold change (ACY-1035/veh), VPS36 (ProbeSet 11739960_a_at) / RFU SYPL1 (11715823_x_at) / Fold change /veh SYPL1 (11715823_x_at) / RFU IGFBP7 (11715501_s_at) / Fold change /veh IGFBP7 (11715501_s_at) / RFU REEP3 (11722064_at) / Fold change /veh REEP3 (11722064_at) / RFU IGLL1 (11728026_x_at) / Fold change /veh IGLL1 (11728026_x_at): dose or concentration left out as unconfirmed
Conditions: ProbeSet 11721611_a_at; LIST D

## Nc1ncn([C@@H]2O[C@H](CO)[C@@H](O)[C@H]2O)c(=O)n1 [azacitidine]
  Fold change vs veh, IPO11: 0.66
